Source: the supplement of paper PMC10307832

Legend:
Assay in all cases: relative viability (nuclei count vs DMSO), 5 days (fraction); higher = more cells survive
[1] = compound: COC1=CC=C(C=C1)CN2C=CC3=C2C=C(C=C3)C(=O)NO + N=C(N)NC(=N)NCCc1ccccc1 [Phenformin] (partner 250 µM)
How it was run: (§1)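 Cells from lung cancer lines were seeded into 1536-well plates and, one day later, dosed by pin tool. Treatments were either a single drug or a fixed dose of an anchor drug with five library-drug doses (not always all listed) in √10 steps. After 5 days, nuclei were stained in a one-step fixation (final 0.05% Triton X-100, 1% formaldehyde, 1 ug/ml Hoechst) and counted on 4× images, and relative viability is the treated-to-vehicle nuclei ratio, as the median of duplicate plates.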

Veliparib + Luminespib = compound: C[C@]1(c2nc3c(C(N)=O)cccc3[nH]2)CCCN1 [Veliparib] + CCNC(=O)c1noc(-c2cc(C(C)C)c(O)cc2O)c1-c1ccc(CN2CCOCC2)cc1 [Luminespib] (partner 0.01 µM)
How it was run: as §1

Veliparib + Alpelisib = compound: C[C@]1(c2nc3c(C(N)=O)cccc3[nH]2)CCCN1 [Veliparib] + Cc1nc(NC(=O)N2CCC[C@H]2C(N)=O)sc1-c1ccnc(C(C)(C)C(F)(F)F)c1 [Alpelisib] (partner 2 µM)
How it was run: as §1

[2] = compound: COC1=CC=C(C=C1)CN2C=CC3=C2C=C(C=C3)C(=O)NO + CC1(C)CCC(c2ccc(Cl)cc2)=C(CN2CCN(c3ccc(C(=O)NS(=O)(=O)c4ccc(N[C@H](CCN5CCOCC5)CSc5ccccc5)c(S(=O)(=O)C(F)(F)F)c4)cc3)CC2)C1 [Navitoclax] (partner 0.5 µM)
How it was run: as §1

Cell Line | relative viability ([1]; first compound 0.253 µM) | relative viability ([1]; first compound 0.8 µM) | relative viability ([1]; first compound 2.53 µM) | relative viability ([1]; first compound 8 µM) | relative viability (Veliparib + Luminespib; first compound 0.06325 µM) | relative viability (Veliparib + Luminespib; first compound 0.2 µM) | relative viability (Veliparib + Luminespib; first compound 0.6325 µM) | relative viability (Veliparib + Luminespib; first compound 2 µM) | relative viability (Veliparib + Alpelisib; first compound 0.02 µM) | relative viability (Veliparib + Alpelisib; first compound 0.06325 µM) | relative viability (Veliparib + Alpelisib; first compound 0.2 µM) | relative viability (Veliparib + Alpelisib; first compound 0.6325 µM) | relative viability (Veliparib + Alpelisib; first compound 2 µM) | relative viability ([2]; first compound 0.08 µM) | relative viability ([2]; first compound 0.253 µM) | relative viability ([2]; first compound 0.8 µM) | relative viability ([2]; first compound 2.53 µM) | relative viability ([2]; first compound 8 µM) | relative viability ([1]; first compound 0.08 µM) | relative viability (Veliparib + Luminespib; first compound 0.02 µM)
PC-14 | 0.348 | 0.667 | 0.639 | 0.488 | 0.147 | 0.198 | 0.151 | 0.145 | 0.923 | 0.862 | 0.796 | 0.886 | 0.893 | 0.869 | 1.04 | 1.01 | 1.14 | 1.02 | – | –
RERF-LC-KJ | 0.412 | 0.484 | 0.408 | 0.347 | 1.25 | 1.2 | 1.21 | 1.29 | 0.715 | 0.891 | 0.96 | 0.761 | 0.74 | 0.934 | 0.852 | 0.903 | 1.04 | 0.926 | 0.362 | 1.26
SK-LU-1 | 0.566 | 0.596 | 0.604 | 0.469 | 0.195 | 0.232 | 0.199 | 0.22 | 1.12 | 0.943 | 1.12 | 0.927 | 1.19 | 0.849 | 1 | 1 | 0.815 | 0.745 | 0.551 | 0.227
SK-MES-1 | 0.651 | 0.632 | 0.686 | 0.644 | 0.467 | 0.897 | 0.735 | 0.898 | 0.938 | 0.712 | 0.878 | 0.785 | 0.848 | 1.2 | 1.3 | 1.26 | 1.2 | 1.02 | 0.661 | 0.827
UMC-11 | 0.356 | 0.331 | 0.286 | 0.309 | 0.994 | 1.02 | 0.958 | 0.975 | 1.01 | 0.941 | 1.14 | 0.947 | 0.972 | 0.197 | 0.341 | 0.316 | 0.317 | 0.339 | – | 1.11
